Test results published in EPA's ToxRefDB 2.

Legend:
[1] = system: rat; details: Sub-acute repeat dose toxicity, sprague dawley, Oral, Gavage/Intubation, dose end: 28 day, group: systemic
[2] = system: rat; details: Multigenerational reproductive toxicity study, sprague dawley, Oral, Gavage/Intubation, dose end: 1 generation
[3] = system: dog; details: Subchronic oral toxicity in nonrodent, beagle, Feed, dose end: 13 week
[4] = system: rat; details: Subchronic oral toxicity in rodents, sprague dawley, Feed, dose end: 3 month
[5] = system: mouse; details: Subchronic oral toxicity in rodents, cd1, Feed, dose end: 3 month, group: systemic
[6] = system: rat; details: Multigenerational reproductive toxicity study, sprague dawley, Oral, Feed, dose end: 2 generation
[7] = system: rat; details: Prenatal developmental toxicity study, wistar, Oral, Gavage/Intubation, dose end: 15 GD
[8] = system: dog; details: Subchronic oral toxicity in nonrodent, beagle, Feed, dose end: 90 day
[9] = system: rat; details: Combined chronic toxicity/carcinogenicity, sprague dawley, Oral, Feed, dose end: 28 month
[10] = system: mouse; details: Combined chronic toxicity/carcinogenicity, b6c3f1, Oral, Feed, dose end: 2 year
[11] = system: dog; details: Chronic toxicity, beagle, Oral, Feed, dose end: 12 month
[12] = systemic / organ weight / liver / relative to body weight + systemic / clinical chemistry / bilirubin / total bilirubin + systemic / in life…
[13] = group: offspring, systemic / in life observation / body weight / offspring (pup) weight
[14] = group: parental, systemic / organ weight / heart / relative to body weight + systemic / organ weight / kidney / relative to body weight + systemic / organ …
[15] = group: reproductive, reproductive / offspring survival early / birth index / live birth index
[16] = group: cholinesterase, cholinesterase / cholinesterase / cholinesterase / plasma cholinesterase (che) + cholinesterase / cholinesterase / cholinesterase / …
[17] = group: systemic, systemic / in life observation / body weight / body weight gain + systemic / in life observation / clinical signs / emaciation + systemic / …
[18] = group: cholinesterase, cholinesterase / cholinesterase / cholinesterase / erythrocyte cholinesterase (che)
[19] = group: cholinesterase, cholinesterase / cholinesterase / cholinesterase / erythrocyte cholinesterase (che) + cholinesterase / cholinesterase / cholinesterase / …
[20] = group: systemic, systemic / clinical chemistry / albumin-globulin ratio / albumin-globulin ratio
[21] = group: systemic, systemic / hematology / hemoglobin (hgb) / hemoglobin (hgb) + systemic / pathology microscopic / stomach / acanthosis + systemic / pathology…
[22] = systemic / in life observation / body weight / body weight + systemic / organ weight / brain / relative to body weight + systemic / organ …
[23] = group: offspring, developmental / offspring survival late / viability index / viability index
[24] = group: parental, systemic / in life observation / body weight / body weight gain
[25] = group: cholinesterase, cholinesterase / cholinesterase / cholinesterase / brain cholinesterase (che) + cholinesterase / cholinesterase / cholinesterase / …
[26] = group: developmental, systemic / in life observation / body weight / fetal weight + developmental / developmental malformation / bone / delayed ossification + …
[27] = group: maternal, reproductive / reproductive performance / postimplantation loss / postimplantation loss + reproductive / reproductive performance / …
[28] = group: systemic, systemic / in life observation / clinical signs / pulse/pressure
[29] = group: systemic, systemic / hematology / erythrocyte (rbc) count differential / erythrocyte (rbc) + systemic / hematology / hematocrit (hct) / hematocrit (…
[30] = group: systemic, systemic / clinical chemistry / cholesterol / cholesterol
[31] = group: systemic, systemic / clinical chemistry / cholesterol / cholesterol + systemic / in life observation / body weight / body weight + systemic / in life …
[32] = group: systemic, systemic / organ weight / liver / absolute

SMILES: O=[N+]([O-])c1ccc(O)c([N+](=O)[O-])c1 [2,4-Dinitrophenol]
- LEL ([1]; systemic / clinical chemistry / bilirubin / total bilirubin): 10 mg/kg/day
- NEL ([1]; systemic / clinical chemistry / bilirubin / total bilirubin + systemic / in life observation / clinical signs / [other] + systemic / in life…): 3 mg/kg/day
- LOAEL [1, 12]: > 80 mg/kg/day
- NOAEL [1, 12]: ≥ 80 mg/kg/day
- LEL [2, 13]: 30 mg/kg/day
- LOAEL [2, 13]: > 30 mg/kg/day
- NEL [2, 13]: 10 mg/kg/day
- NOAEL [2, 13]: ≥ 30 mg/kg/day
- LEL [2, 14]: 30 mg/kg/day
- LOAEL [2, 14]: > 30 mg/kg/day
- NEL [2, 14]: 10 mg/kg/day
- NOAEL [2, 14]: ≥ 30 mg/kg/day
- LEL [2, 15]: 30 mg/kg/day
- LOAEL [2, 15]: > 30 mg/kg/day
- NEL [2, 15]: 10 mg/kg/day
- NOAEL [2, 15]: ≥ 30 mg/kg/day

SMILES: COP(=S)(OC)Oc1ccc([N+](=O)[O-])cc1 [Methyl parathion]
- LEL [3, 16]: 3 mg/kg/day
- LOAEL [3, 16]: 3 mg/kg/day
- NEL [3, 16]: 0.3 mg/kg/day
- NOAEL [3, 16]: 0.3 mg/kg/day
- LOAEL ([3]; group: systemic, systemic / in life observation / body weight / body weight gain): 3 mg/kg/day
- LEL [3, 17]: 3 mg/kg/day
- NOAEL [3, 17]: 0.3 mg/kg/day
- NEL ([3]; group: systemic, systemic / in life observation / clinical signs / emaciation + systemic / in life observation / clinical signs / dehydration + systemic / in…): 0.3 mg/kg/day
- LEL [4, 18]: 1.24 mg/kg/day
- LOAEL [4, 18]: 1.24 mg/kg/day
- NEL [4, 19]: 0.12 mg/kg/day
- NOAEL [4, 19]: 0.12 mg/kg/day
- LEL [4, 20]: 0.16 mg/kg/day
- NEL [4, 20]: < 0.16 mg/kg/day
- LOAEL [4, 21]: 1.24 mg/kg/day
- NOAEL [4, 21]: 0.12 mg/kg/day
- LOAEL ([5]; systemic / in life observation / body weight / body weight): 13.5 mg/kg/day
- LEL [5, 22]: 13.5 mg/kg/day
- NEL [5, 22]: 6.5 mg/kg/day
- NOAEL [5, 22]: 6.5 mg/kg/day
- LEL [6, 23]: 2 mg/kg/day
- LOAEL [6, 23]: 2 mg/kg/day
- NEL [6, 23]: 0.38 mg/kg/day
- NOAEL [6, 23]: 0.38 mg/kg/day
- LOAEL [6, 24]: 2.3 mg/kg/day
- NEL [6, 24]: 0.44 mg/kg/day
- NOAEL [6, 24]: 0.44 mg/kg/day
- LEL ([6]; group: parental, systemic / in life observation / body weight / body weight gain + systemic / in life observation / body weight / body weight): 2.3 mg/kg/day
- LEL [7, 25]: 3 mg/kg/day
- LOAEL [7, 25]: > 3 mg/kg/day
- NOAEL [7, 25]: ≥ 3 mg/kg/day
- LOAEL ([7]; group: developmental, systemic / in life observation / body weight / fetal weight): 3 mg/kg/day
- LEL [7, 26]: 3 mg/kg/day
- NEL [7, 26]: 1 mg/kg/day
- NOAEL [7, 26]: 1 mg/kg/day
- LEL [7, 27]: 3 mg/kg/day
- LOAEL [7, 27]: 3 mg/kg/day
- NEL [7, 27]: 1 mg/kg/day
- NOAEL [7, 27]: 1 mg/kg/day
- LEL [8, 19]: 1 mg/kg/day
- LOAEL [8, 19]: 1 mg/kg/day
- NEL [8, 19]: 0.3 mg/kg/day
- NOAEL [8, 19]: 0.3 mg/kg/day
- LEL [8, 28]: 3 mg/kg/day
- LOAEL [8, 28]: 3 mg/kg/day
- NEL [8, 28]: 1 mg/kg/day
- NOAEL [8, 28]: 1 mg/kg/day
- LOAEL [9, 25]: > 2.21 mg/kg/day
- NEL [9, 25]: 0.02 mg/kg/day
- NOAEL [9, 25]: ≥ 2.21 mg/kg/day
- LEL [9, 18]: 0.21 mg/kg/day
- LEL [9, 29]: 0.21 mg/kg/day
- LOAEL [9, 29]: 0.21 mg/kg/day
- NEL [9, 29]: 0.02 mg/kg/day
- NOAEL [9, 29]: 0.02 mg/kg/day
- LEL [10, 25]: 1.6 mg/kg/day
- LOAEL [10, 25]: 1.6 mg/kg/day
- NEL [10, 25]: 0.2 mg/kg/day
- NOAEL [10, 25]: 0.2 mg/kg/day
- LEL [10, 30]: 2.1 mg/kg/day
- LOAEL [10, 30]: 2.1 mg/kg/day
- NEL [10, 31]: 0.3 mg/kg/day
- NOAEL [10, 31]: 0.3 mg/kg/day
- LEL [11, 19]: 0.03 mg/kg/day
- LOAEL [11, 19]: 0.03 mg/kg/day
- NEL [11, 19]: < 0.03 mg/kg/day
- NOAEL [11, 19]: < 0.03 mg/kg/day
- LEL [11, 32]: 0.3 mg/kg/day
- LOAEL [11, 32]: > 0.3 mg/kg/day
- NEL [11, 32]: 0.1 mg/kg/day
- NOAEL [11, 32]: ≥ 0.3 mg/kg/day
